{"source": "patent US20120157401A1", "about": "“METHODS FOR TREATING NEUROFIBROMATOSIS” (PTC Therapeutics, Inc., priority 2009, published 2012)", "key": {"[1]": {"test_system": "VEGF189 and VEGF206 isoforms", "experiment": "In-Cell Western / Western blot of matrix associated VEGF189/206 production in HT1080 cells", "assay_type": "cell-based, human", "conditions": "HT1080, normoxic, 48 hours", "procedure": "Experimental Design. HT1080 (human fibrosacoma) cell cultures were established under normoxic conditions (21% oxygen). HT1080 cells constitutively overproduce VEGF even under normoxic conditions. […] At the completion of treatment, the cells were washed and harvested. Cells were incubated with a primary antibody that recognizes the VEGF189 and VEGF206 isoforms. Infrared-dye labeled antibodies were applied secondarily, and the amounts of VEGF189 and VEGF206 were determined using the IN-CELL WESTERN® assay and ODYSSEY® infrared imaging system (Li-Cor, Lincoln, Nebr., USA); results are expressed as percentage inhibition relative to vehicle treated controls. Conventional Western blotting using the same primary antibody was also performed to confirm the presence of the matrix associated isoforms; for these experiments actin was used as a loading control. Actin is a ubiquitous housekeeping protein that is not known to be post transcriptionally regulated."}, "[2]": {"test_system": "tumor vessels (CD31 endothelial cells)", "experiment": "Intratumoral microvessel density, anti-murine CD31 immunostain, HT1080 xenografts", "assay_type": "in vivo, athymic nude mice", "conditions": "racemic mixture, 5 mg/kg of Compound #10 oral BID, 10 days", "procedure": "Experimental Design. HT1080 cells (5×10^6 cells/mouse) were implanted subcutaneously in male athymic nude mice.\nAt the end of treatment, the mice were sacrificed. Excised tumors were assayed by ELISA for VEGF content as described in Section 9.1.1.1, and were sectioned and immunostained with an anti murine CD31 antibody that is specific for endothelial cells."}, "SY5Y xenografts": {"test_system": "SY5Y xenografts", "experiment": "SY5Y neuroblastoma subcutaneous xenograft: tumor growth", "assay_type": "in vivo", "procedure": "Experimental Design. SY5Y cells are derived from a human neuroblastoma, a childhood tumor arising in neural crest cells. SY5Y cells (1×10^7 cells/mouse) were implanted subcutaneously in male athymic nude mice.\nTumor size was measured by calipers at periodic intervals. When the average tumor size in a group exceeded 2000 mm^3, the mice in the group were sacrificed and excised tumors were assayed for intratumoral VEGF concentration as described in Section 9.1.1.1."}, "LNCaP xenografts": {"test_system": "LNCaP xenografts", "experiment": "LNCaP prostate cancer xenograft: tumor growth (Table 20)", "assay_type": "in vivo, athymic nude mice", "procedure": "Experimental Design. The LNCaP cell line is derived from a lymph node metastasis.\nTumor size was measured by calipers at periodic intervals during the study. When the mean tumor size in a mouse exceeded 1500 mm^3, mice in that group were sacrificed and both tumor and plasma were assayed for pathologic VEGF concentration as described in Section 9.1.1.1."}, "HT1080 cells": {"test_system": "HT1080 cells", "experiment": "Reversibility of cell cycle delay after washout in HT1080 cells", "assay_type": "cell-based, human", "conditions": "HT1080, 100 nM for 14 hours, then washout"}, "[3]": {"experiment": "Cardiovascular safety pharmacology in awake telemeterized dogs", "assay_type": "in vivo, beagle dogs", "conditions": "single oral doses of 30, 60, and 120 mg/kg, male dogs"}, "[4]": {"experiment": "Oral toxicokinetics in dogs", "assay_type": "in vivo, beagle dogs", "procedure": "The pharmacokinetic evaluations in mice were adjuncts to the primary pharmacodynamic xenograft studies. The evaluations in rats included toxicokinetic assessments in single-dose, 7-day, and 28-day toxicology studies as well as a mass-balance study after a single oral dose of ^14C-Compound #10. The evaluations in dogs included toxicokinetic assessments in 7-day and 28-day toxicology studies. In the studies performed, rodents were dosed once daily with Compound #10 formulated in vehicle and administered via oral gavage."}, "CYP3A4": {"molecular_target": "T1, CYP3A4 (Homo sapiens, UniProt P08684)", "T1 construct": "host or cells: human hepatic microsomes or recombinant isoenzyme (not distinguished)", "T1 sequence (P08684 whole entry)": "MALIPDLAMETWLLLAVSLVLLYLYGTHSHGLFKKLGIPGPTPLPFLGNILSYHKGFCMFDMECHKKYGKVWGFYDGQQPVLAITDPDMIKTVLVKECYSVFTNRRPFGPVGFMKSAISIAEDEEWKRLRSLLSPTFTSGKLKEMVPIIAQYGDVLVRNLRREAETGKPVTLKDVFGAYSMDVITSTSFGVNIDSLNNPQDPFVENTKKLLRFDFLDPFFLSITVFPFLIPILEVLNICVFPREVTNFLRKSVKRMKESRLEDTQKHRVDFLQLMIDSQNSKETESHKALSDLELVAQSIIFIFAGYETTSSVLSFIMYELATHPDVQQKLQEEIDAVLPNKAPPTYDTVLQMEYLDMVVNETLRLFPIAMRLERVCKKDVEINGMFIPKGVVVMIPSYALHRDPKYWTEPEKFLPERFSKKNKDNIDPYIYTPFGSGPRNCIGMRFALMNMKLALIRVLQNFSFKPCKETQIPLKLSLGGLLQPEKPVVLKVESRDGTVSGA", "experiment": "CYP inhibition: CYP3A4", "assay_type": "in vitro ADME", "conditions": "human hepatic microsomes or recombinant isoenzymes", "excerpt": "It is possible that in certain clinical trial subjects, such agents may need to be adjusted for dosing or replaced by alternative agents that are not metabolized by CYP2D6, particularly when such agents may have a low therapeutic index."}, "[5]": {"experiment": "7-day oral toxicity study in dogs", "assay_type": "in vivo"}, "[6]": {"test_system": "Chinese hamster ovary (CHO) cells", "experiment": "Chromosome aberration study in CHO cells", "assay_type": "cell-based", "conditions": "with and without metabolic activation", "procedure": "Genotoxicity was assessed in a battery of in vitro and in vivo studies that included a bacterial reverse mutation study, a chromosome aberration study in Chinese hamster ovary (CHO) cells, and a micronucleus study in rats by the oral route. The in vitro studies were performed in the presence and absence of an exogenous metabolic activation system."}, "physiological VEGF-A": {"test_system": "physiological VEGF-A", "experiment": "Phase 1 multiple-dose study: plasma and serum physiological VEGF-A concentrations", "assay_type": "in vivo, human", "conditions": "healthy volunteers, all doses tested", "excerpt": "Plasma VEGF Concentrations: Plasma and serum VEGF concentrations and concentration changes from baseline were presented descriptively."}, "tumor perfusion": {"test_system": "tumor perfusion", "experiment": "Patients: tumor perfusion by DCE-MRI", "assay_type": "in vivo, human", "excerpt": "Tumor perfusion using DCE-MRI: Assessing tumor blood flow offers an additional parameter of a Compound's action that can confirm the downstream consequences of decreasing tumor VEGF. Measurement of blood flow in target lesions provides direct evidence of a Compound's action on tumors that can be correlated with plasma VEGF changes. Assessment of tumor perfusion using DCE-MRI may be used to evaluate the efficacy of a Compound using standard protocols (see., e.g., Morgan et al., J. Clin. Oncol., Nov. 1, 2003, 21(21):3955-64; Leach et al., Br. J. Cancer, May 9, 2005, 92(9):1599-610; Liu et al., J. Clin. Oncol., August 2005, 23(24): 5464-73; and Thomas et al., J. Clin. Oncol., Jun. 20, 2005, 23(18):4162-71).\nTumor Perfusion with DCE-MRI. Subjects may undergo DCE-MRI for the target lesion of interest during the screening period and between 1 to 8 hours after the AM dose at various times throughout the treatment protocol."}, "[7]": {"experiment": "28-day oral toxicity study in dogs (15-day recovery)", "protocol": "The L23 vehicle was used. […] All studies in the toxicology program were conducted according to GLP regulations."}, "[8]": {"conditions": "50 mg/kg QD, 5 days per week (Table 18)"}, "[9]": {"conditions": "LNCaP xenografts, male athymic nude mice, 10 mg/kg M-W-F oral gavage"}}, "note": "“Also recorded” adds a separate entry of the source. Marks after values point to notes of the source that are not given here.", "data": [{"smiles": "COc1ccc(C2c3[nH]c4ccc(Cl)cc4c3CCN2C(=O)Oc2ccc(Cl)cc2)cc1", "note": "(racemic) [Compound #10]", "values": [{"measurement": "Inhibition of VEGF189 and VEGF206 isoforms", "setting": "[1]", "value": "potent concentration-dependent inhibition"}, {"measurement": "Total volume of tumor vessels and diameters of vessels", "setting": "[2]", "value": "visibly reduced"}, {"measurement": "Tumor vessel count", "setting": "[2]", "value": "unchanged"}, {"measurement": "Mean % Inhibition of Tumor Size vs Vehicle at Day 17", "setting": "SY5Y xenografts; [8]", "value": "73* %"}, {"measurement": "Median Time to Tumor Size ≧1000 mm^3", "setting": "SY5Y xenografts; [8]", "value": 35, "unit": "days"}, {"measurement": "Toxicity on observing the animals", "setting": "SY5Y xenografts; SY5Y xenograft mice", "value": "no evidence of toxicity"}, {"measurement": "Time to tumor progression (time to reach ≧1000 mm^3)", "setting": "LNCaP xenografts; 10 mg/kg M-W-F", "value": "prolonged"}, {"measurement": "Toxicity on observing the animals", "setting": "LNCaP xenografts; LNCaP xenograft mice", "value": "no evidence of toxicity"}, {"measurement": "Mean % Inhibition of Tumor Size vs Vehicle at Day 35", "setting": "LNCaP xenografts; [9]", "value": 36, "unit": "%"}, {"measurement": "Median Time to Tumor Size ≧1000 mm^3", "setting": "LNCaP xenografts; [9]", "value": 38, "unit": "days"}, {"measurement": "Time after washout by which cells had resumed normal cycling", "setting": "HT1080 cells", "value": "≤ 26", "unit": "h"}, {"measurement": "Changes in cardiovascular or electrocardiographic (including QT interval) parameters", "setting": "[3]", "value": "no meaningful changes"}, {"measurement": "Oral bioavailability", "setting": "[4]", "value": "orally bioavailable"}, {"measurement": "Inhibition of CYP3A4", "setting": "CYP3A4", "value": "No meaningful inhibition"}, {"measurement": "Dose of maximal exposures", "setting": "[5]; 7 consecutive days", "value": 30, "unit": "mg/kg/dose BID"}, {"measurement": "Treatment-related clinical findings", "setting": "[5]; 7 days, males and females", "value": "increased incidence and frequency of soft stools"}, {"measurement": "Genotoxic effects, chromosome aberration in CHO cells", "setting": "[6]", "value": "no evidence of genotoxic effects"}, {"measurement": "Effect on plasma or serum physiological VEGF-A concentrations", "setting": "physiological VEGF-A", "value": "no clear dose dependent effects; also recorded: No significant alterations"}, {"measurement": "Tumor perfusion in patients by DCE-MRI (FIG. 36)", "setting": "tumor perfusion", "value": "reduced"}, {"measurement": "Dose of maximal exposures", "setting": "[7]", "value": 30, "unit": "mg/kg/dose BID"}, {"measurement": "Target organ of toxicity", "setting": "[7]; high dose", "value": "small intestine"}]}]}
